Laboratory results from patent publication US10543212B2, “Substituted amines for treating cardiac diseases” (Cardurion Pharmaceuticals, LLC, priority 2017, dated 2020).

Biological target: T1, Full-length, GST-tagged, human CaMKIIδ (Homo sapiens, UniProt Q13557)
T1 construct: Full-Length, Glutathione-S-Transferase(GST)-Tagged, Human CaMKIIδ was purchased from Carna Biosciences; purchased Carna Biosciences 02-111
Assay: CaMKIIδ binding assay (TR-FRET with BODIPY-labeled probe ligand)
Conditions: CaMKIIδ binding assay, results of Table 2
Procedure, shortened: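 Compounds were tested as 4-fold, eight-point series for 1 hr at room temperature, and IC50 was obtained by logistic fitting against a 3 μM parent-compound control. Signal came from displacement of a 300 nM BODIPY ligand from 0.5 nM GST-CaMKIIδ, detected via Tb-anti-GST in calmodulin/Ca2+ (pH 7.6).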

T1 sequence (Q13557 1-478 isoform Q13557-12): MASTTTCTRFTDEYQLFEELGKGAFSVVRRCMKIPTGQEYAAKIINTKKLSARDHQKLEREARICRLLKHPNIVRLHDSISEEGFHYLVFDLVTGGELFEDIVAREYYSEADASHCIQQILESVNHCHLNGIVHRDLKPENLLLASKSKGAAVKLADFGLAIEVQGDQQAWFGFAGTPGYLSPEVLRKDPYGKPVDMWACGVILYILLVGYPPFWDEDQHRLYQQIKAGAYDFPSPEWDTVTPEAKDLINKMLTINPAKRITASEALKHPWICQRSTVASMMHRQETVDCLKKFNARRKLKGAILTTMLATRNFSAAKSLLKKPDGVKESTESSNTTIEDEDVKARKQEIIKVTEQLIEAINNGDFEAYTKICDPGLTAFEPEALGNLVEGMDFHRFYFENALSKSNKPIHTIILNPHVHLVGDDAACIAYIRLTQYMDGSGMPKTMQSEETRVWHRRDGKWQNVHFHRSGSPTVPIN

| SMILES | IC50 |
| --- | --- |
| CCc1cc2c(cc1Nc1ncc(-c3ccc(Cl)c(O[C@@H](C)Cn4cnnn4)c3)cn1)CN(C1COC1)CC2 [Example 515, (S)-N-(5-(3-((1-(1H-tetrazol-1-yl)propan-2-yl)oxy)-4-chlorophenyl)pyrimidin-2-yl)-6-ethyl-2-(oxetan-3-yl)-1,2,3,4-tetrahydroisoquinolin-7-amine] | 10 to 100 nM |
| COc1cc2c(cc1Nc1ncc(-c3ccc(Cl)c(O[C@@H](C)Cn4cnnn4)c3)cn1)CN(C1COC1)CCC2 [Example 467, (S)-N-(5-(3-((1-(1H-tetrazol-1-yl)propan-2-yl)oxy)-4-chlorophenyl)pyrimidin-2-yl)-7-methoxy-2-(oxetan-3-yl)-2,3,4,5-tetrahydro-1H-benzo[c]azepin-8-amine] | 10 to 100 nM |
| COc1ccc(N2CCC(N3CCOCC3)CC2)cc1Nc1ncc(-c2ccc(C#N)c(O[C@@H](C)COC(F)F)c2)cn1 [Example 495, (S)-2-((1-(difluoromethoxy)propan-2-yl)oxy)-4-(2-((2-methoxy-5-(4-morpholinopiperidin-1-yl)phenyl)amino)pyrimidin-5-yl)benzonitrile] | 10 to 100 nM |
| C[C@@H](Cn1cnnn1)Oc1cc(-c2cnc(Nc3cc(N4CCC(N5CCOCC5)CC4)ncc3OC(F)(F)F)nc2)ccc1Cl [Example 537, (S)-5-(3-((1-(1H-tetrazol-1-yl)propan-2-yl)oxy)-4-chlorophenyl)-N-(2-(4-morpholinopiperidin-1-yl)-5-(trifluoromethoxy)pyridin-4-yl)pyrimidin-2-amine] | < 10 nM |
| C[C@@H](Cn1cnnn1)Oc1cc(-c2cnc(Nc3ccc4c(c3)N(C(=O)CCN(C)C)CC4)nc2)ccc1Cl [Example 437, (S)-1-(6-((5-(3-((1-(1H-tetrazol-1-yl)propan-2-yl)oxy)-4-chlorophenyl)pyrimidin-2-yl)amino)indolin-1-yl)-3-(dimethylamino)propan-1-one] | < 10 nM |
| C[C@@H](Cn1cnnn1)Oc1cc(-c2cnc(Nc3cn(C4CCN(C(=O)OC(C)(C)C)CC4)nc3C(F)(F)F)nc2)ccc1Cl [Example 482, tert-butyl (S)-4-(4-((5-(3-((1-(1H-tetrazol-1-yl)propan-2-yl)oxy)-4-chlorophenyl)pyrimidin-2-yl)amino)-3-(trifluoromethyl)-1H-pyrazol-1-yl)piperidine-1-carboxylate] | 10 to 100 nM |
| C[C@@H](Cn1cnnn1)Oc1cc(-c2cnc(Nc3cn(C4CCN(CC(F)F)CC4)nc3C(F)(F)F)nc2)ccc1Cl [Example 485, (S)-5-(3-((1-(1H-tetrazol-1-yl)propan-2-yl)oxy)-4-chlorophenyl)-N-(1-(1-(2,2-difluoroethyl)piperidin-4-yl)-3-(trifluoromethyl)-1H-pyrazol-4-yl)pyrimidin-2-amine] | 10 to 100 nM |
| COc1cc2c(cc1Nc1ncc(-c3ccc(Cl)c(O[C@@H](C)Cn4cnnn4)c3)cn1)CCN(CC(F)F)C2 [Example 476, (S)-N-(5-(3-((1-(1H-tetrazol-1-yl)propan-2-yl)oxy)-4-chlorophenyl)pyrimidin-2-yl)-2-(2,2-difluoroethyl)-7-methoxy-1,2,3,4-tetrahydroisoquinolin-6-amine] | 10 to 100 nM |

Same assay, conditions: CaMKIIδ binding assay; activity class per Table 2

| SMILES | IC50 |
| --- | --- |
| COCCN1CC2(CC(n3cc(Nc4ncc(-c5ccc(Cl)c(O[C@@H](C)Cn6cnnn6)c5)cn4)c(OCC(F)(F)F)n3)C2)C1 [Example 979, (S)-5-(3-((1-(1H-tetrazol-1-yl)propan-2-yl)oxy)-4-chlorophenyl)-N-(1-(2-(2-methoxyethyl)-2-azaspiro[3.3]heptan-6-yl)-3-(2,2,2-trifluoroethoxy)-1H-pyrazol-4-yl)pyrimidin-2-amine] | < 10 nM |

Same assay, conditions: Table 2; CaMKIIδ binding assay, activity given as class A/B/C

| SMILES | IC50 |
| --- | --- |
| C[C@@H](Cn1cnnn1)Oc1cc(-c2cnc(Nc3cn(C4CCCCNC4=O)nc3OCC(F)(F)F)nc2)ccc1Cl (stereo partly drawn) [Example 777, 3-(4-((5-(3-(((S)-1-(1H-tetrazol-1-yl)propan-2-yl)oxy)-4-chlorophenyl)pyrimidin-2-yl)amino)-3-(2,2,2-trifluoroethoxy)-1H-pyrazol-1-yl)azepan-2-one] | < 10 nM |
| Cc1ccc(-c2cnc(Nc3cn([C@H]4CC[C@H](N5CCOCC5)CC4)nc3C(F)(F)F)nc2)cc1O[C@@H](C)Cn1cnnn1 [Example 810, 5-(3-(((S)-1-(1H-tetrazol-1-yl)propan-2-yl)oxy)-4-methylphenyl)-N-(1-(trans-4-morpholinocyclohexyl)-3-(trifluoromethyl)-1H-pyrazol-4-yl)pyrimidin-2-amine] | < 10 nM |
| C[C@@H](Cn1cnnn1)Oc1cc(-c2cnc(Nc3cn([C@H]4CC[C@@H](N5CC(C)(O)C5)CC4)nc3OCC(F)(F)F)nc2)ccc1Cl [Example 801, 1-(cis-4-(4-((5-(3-(((S)-1-(1H-tetrazol-1-yl)propan-2-yl)oxy)-4-chlorophenyl)pyrimidin-2-yl)amino)-3-(2,2,2-trifluoroethoxy)-1H-pyrazol-1-yl)cyclohexyl)-3-methylazetidin-3-ol] | < 10 nM |
| C[C@@H](Cn1cnnn1)Oc1cc(-c2cnc(Nc3cn([C@@H]4C[C@H]5CC[C@@H](C4)N5C4CC4)nc3C(F)(F)F)nc2)ccc1Cl [Example 757, 5-(3-(((S)-1-(1H-tetrazol-1-yl)propan-2-yl)oxy)-4-chlorophenyl)-N-(1-((1R,3s,5S)-8-cyclopropyl-8-azabicyclo[3.2.1]octan-3-yl)-3-(trifluoromethyl)-1H-pyrazol-4-yl)pyrimidin-2-amine] | < 10 nM |
| C[C@@H](Cn1cnnn1)Oc1cc(-c2cnc(Nc3cn(C4CC4)nc3OCC(F)(F)F)nc2)ccc1Cl [Example 774, (S)-5-(3-((1-(1H-tetrazol-1-yl)propan-2-yl)oxy)-4-chlorophenyl)-N-(1-cyclopropyl-3-(2,2,2-trifluoroethoxy)-1H-pyrazol-4-yl)pyrimidin-2-amine] | < 10 nM |

Same assay, conditions: Table 2; activity class for CaMKIIδ

| SMILES | IC50 |
| --- | --- |
| C[C@@H](Cn1cnnn1)Oc1cc(-c2cnc(Nc3cn(CCN4CCCC4)nc3C(F)(F)F)nc2)ccc1Cl [Example 631, (S)-5-(3-((1-(1H-tetrazol-1-yl)propan-2-yl)oxy)-4-chlorophenyl)-N-(1-(2-(pyrrolidin-1-yl)ethyl)-3-(trifluoromethyl)-1H-pyrazol-4-yl)pyrimidin-2-amine] | < 10 nM |
| C[C@@H](Cn1cnnn1)Oc1cc(-c2cnc(Nc3cn(C4CCCCO4)nc3OCC(F)(F)F)nc2)ccc1Cl (stereo partly drawn) [Example 678, 5-(3-(((S)-1-(1H-tetrazol-1-yl)propan-2-yl)oxy)-4-chlorophenyl)-N-(1-(tetrahydro-2H-pyran-2-yl)-3-(2,2,2-trifluoroethoxy)-1H-pyrazol-4-yl)pyrimidin-2-amine] | < 10 nM |
| COc1nc(N2CCN(CC3COC3)CC2)ccc1Nc1ncc(-c2ccc(Cl)c(O[C@@H](C)Cn3cnnn3)c2)cn1 [Example 639, (S)-5-(3-((1-(1H-tetrazol-1-yl)propan-2-yl)oxy)-4-chlorophenyl)-N-(2-methoxy-6-(4-(oxetan-3-ylmethyl)piperazin-1-yl)pyridin-3-yl)pyrimidin-2-amine] | 10 to 100 nM |
| COc1nc(N2CCN(C3CCOCC3)CC2)ccc1Nc1ncc(-c2ccc(Cl)c(O[C@@H](C)Cn3cnnn3)c2)cn1 [Example 616, (S)-5-(3-((1-(1H-tetrazol-1-yl)propan-2-yl)oxy)-4-chlorophenyl)-N-(2-methoxy-6-(4-(tetrahydro-2H-pyran-4-yl)piperazin-1-yl)pyridin-3-yl)pyrimidin-2-amine] | < 10 nM |
| COc1nc(N2CCN(C3CC3)CC2)ccc1Nc1ncc(-c2ccc(Cl)c(O[C@@H](C)Cn3cnnn3)c2)cn1 [Example 671, (S)-5-(3-((1-(1H-tetrazol-1-yl)propan-2-yl)oxy)-4-chlorophenyl)-N-(6-(4-cyclopropylpiperazin-1-yl)-2-methoxypyridin-3-yl)pyrimidin-2-amine] | < 10 nM |
| C[C@@H](Cn1cnnn1)Oc1cc(-c2cnc(Nc3cn(CC4CCCCO4)nc3C(F)(F)F)nc2)ccc1Cl (stereo partly drawn) [Example 712, 5-(3-(((S)-1-(1H-tetrazol-1-yl)propan-2-yl)oxy)-4-chlorophenyl)-N-(1-((tetrahydro-2H-pyran-2-yl)methyl)-3-(trifluoromethyl)-1H-pyrazol-4-yl)pyrimidin-2-amine] | 10 to 100 nM |
| Cc1ncc(N2CC(N3CCOCC3)C2)cc1Nc1ncc(-c2ccc(Cl)c(O[C@@H](C)Cn3cnnn3)c2)cn1 [Example 605, (S)-5-(3-((1-(1H-tetrazol-1-yl)propan-2-yl)oxy)-4-chlorophenyl)-N-(2-methyl-5-(3-morpholinoazetidin-1-yl)pyridin-3-yl)pyrimidin-2-amine] | 10 to 100 nM |
| COc1cc(N2CCNC[C@@H]2C)ccc1Nc1ncc(-c2ccc(Cl)c(O[C@@H](C)Cn3cnnn3)c2)cn1 [Example 649, 5-(3-(((S)-1-(1H-tetrazol-1-yl)propan-2-yl)oxy)-4-chlorophenyl)-N-(2-methoxy-4-((S)-2-methylpiperazin-1-yl)phenyl)pyrimidin-2-amine] | < 10 nM |
| COc1cc2c(cc1Nc1ncc(-c3ccc(Cl)c(O[C@@H](C)Cn4cnnn4)c3)cn1)NCCC2 [Example 591, (S)-N-(5-(3-((1-(1H-tetrazol-1-yl)propan-2-yl)oxy)-4-chlorophenyl)pyrimidin-2-yl)-6-methoxy-1,2,3,4-tetrahydroquinolin-7-amine] | < 10 nM |
| COc1cc(N2CCN(C3CCOCC3)CC2)ncc1Nc1ncc(-c2ccc(Cl)c(O[C@@H](C)Cn3cnnn3)c2)cn1 [Example 650, (S)-5-(3-((1-(1H-tetrazol-1-yl)propan-2-yl)oxy)-4-chlorophenyl)-N-(4-methoxy-6-(4-(tetrahydro-2H-pyran-4-yl)piperazin-1-yl)pyridin-3-yl)pyrimidin-2-amine] | < 10 nM |
| C[C@@H](Cn1cnnn1)Oc1cc(-c2cnc(Nc3cc(-c4cccs4)nn3C)nc2)ccc1Cl [Example 729, (S)-5-(3-((1-(1H-tetrazol-1-yl)propan-2-yl)oxy)-4-chlorophenyl)-N-(1-methyl-3-(thiophen-2-yl)-1H-pyrazol-5-yl)pyrimidin-2-amine] | 10 to 100 nM |
